Article PMC6348443 (Journal of Medicinal Chemistry, 2018)
Entries after “also recorded” stand apart in the source; their conditions may differ. Structures can show the parent of a compound that is named as a salt. Where two headings read alike, the source gives them in different places.

Experiments:
MOR [1] = molecular target: T1, MOR (Homo sapiens, UniProt P35372); test: [35S]GTPγS binding assay, CHO-hMOR membranes; format: biochemical; settings: for Emax: relative to reference full agonist DAMGO, read-out: MOR % stim.
T1 construct: host or cells: CHO (CHO-hMOR)

KOR [2] = molecular target: T2, KOR (Homo sapiens, UniProt P41145); test: [35S]GTPγS binding assay, CHO-hKOR membranes; format: biochemical; settings: for Emax: relative to reference full agonist U69,593, read-out: KOR % stim.
T2 construct: host or cells: CHO (CHO-hKOR)

male CD1 mice [3] = test: acetic acid-induced writhing assay after sc administration; format: in vivo, mouse; settings: Mus musculus, 0.5 h, read-out: ED50 (95% CI), mice, sc, inhibition of writhing 30 min after drug administration
MOR [4] = molecular target: T1, MOR; test: competition radioligand binding, CHO cell membranes expressing human MOR, [3H]DAMGO
Experimental: (§1) Membranes from CHO cells expressing human opioid receptors were prepared in 50 mM Tris-HCl buffer (pH 7.7) according to a previously described procedure.[64] Cells expressing human opioid receptors grown at confluence were removed from the culture plates by scraping, homogenized in 50 mM Tris buffer (pH 7.7), using a Polytron homogenizer, then centrifuged once and washed by an additional centrifugation at 27 000g for 15 min, at 4 °C. The final pellet was resuspended in Tris buffer and stored at −80 °C until use. Protein content of brain and cell membrane preparation homogenates was determined by the method of Bradford using bovine serum albumin as the standard.[65]
(§2) Rat brain membranes were incubated with either [^3H]DAMGO (1 nM, 45 min, 35 °C) or [^3H][Ile^5,6]deltorphin II (0.5 nM, 45 min, 35 °C) for labeling MOR or DOR receptors, respectively. Guinea-pig brain membranes were incubated with [^3H]U69,593 (1 nM, 30 min, 30 °C) for labeling KOR. Binding assays with CHO cell membranes were conducted at 25 °C for 60 min using [^3H]DAMGO (1 nM) or [^3H]diprenorphine (0.2 nM) for labeling MOR or DOR, respectively. Nonspecific binding was determined using 10 μM naloxone (rodent brain) or 1–10 μM of the unlabeled counterpart of each radioligand (CHO cells). Reactions were terminated by rapid filtration through Whatman glass fiber GF/C filters. Filters were washed three times with 5 mL of ice-cold 50 mM Tris-HCl buffer (pH 7.4) using a Brandel M24R cell harvester (Gaithersburg, MD). Radioactivity retained on the filters was counted by liquid scintillation counting using a Beckman Coulter LS6500 (Beckman Coulter Inc., Fullerton, CA). All binding experiments were performed in duplicate and repeated at least three times.
(§3) aDetermined in competition radioligand binding assays using CHO cell membranes expressing
(§4) human MOR and DOR. Values represent the mean ± SEM of three independent experiments each

DOR [5] = molecular target: T3, DOR (Homo sapiens, UniProt P41143); test: competition radioligand binding, CHO cell membranes expressing human DOR, [3H]diprenorphine
T3 construct: host or cells: CHO (CHO-hDOR)
Experimental: as §1, §2, §3, §4

[6] = test system: peripheral opioid receptors; test: antagonism by naloxone methiodide in the acetic acid-induced writhing assay; format: in vivo, mouse; settings: sc co-administration with naloxone methiodide 1 mg/kg; agonist 50 or 200 μg/kg sc; 30 min
Text: To determine whether targeted 6-amino acid and 6-dipeptide analogues inhibit writhing behavior in mice through peripheral opioid receptors activation, we used naloxone methiodide.[27]
Values are shown as mean of writhes ± SEM (n = 6–7 mice per group). ***P < 0.001 vs control group; ^#P < 0.05, ^##P < 0.01 and ^###P < 0.001 vs agonist treated group, ANOVA with Tukey’s post hoc test.
Writhing was induced in male CD1 mice by ip injection of a 0.6% acetic acid aqueous solution as described previously.[48],[62] Groups of mice were administered sc different doses of test compound or saline (control), and 5 min prior to testing (25 min after drug or saline), each animal received an ip injection of acetic acid solution. Each mouse was placed in individual transparent Plexiglas chambers, and the number of writhes was counted during a 10 min observation period. […] For the antagonism study, naloxone methiodide was sc co-administered with the respective opioid agonist, and writhing was assessed as described above.

male CD1 mice [7] = settings: sc; cited from earlier work
MOR [8] = settings: systemic sc 2b, icv CTAP; cited from earlier work
mouse = test system: mouse; design: method as in PMID 25721395; settings: systemic ip administration; cited from earlier work
rats = test system: rats; design: method as in PMID 16339394; settings: given orally; cited from earlier work
MOR [9] = molecular target: T4, MOR (Rattus norvegicus, UniProt P33535); test: competition radioligand binding, rat brain membranes, [3H]DAMGO; settings: for Ki: rat brain membranes, read-out: opioid receptor binding Ki MOR
T4 construct: Membranes were prepared from Sprague-Dawley rat brains or guinea-pig brains according to the described procedures; tissue Labortierkunde und Laborgenetik, Medizinische Universität Wien; host or cells: Sprague-Dawley rat brain without cerebella

DOR [10] = molecular target: T5, DOR (Rattus norvegicus, UniProt P33533); test: competition radioligand binding, rat brain membranes, [3H][Ile5,6]deltorphin II; settings: for Ki: rat brain membranes, read-out: opioid receptor binding Ki DOR
T5 construct: Membranes were prepared from Sprague-Dawley rat brains or guinea-pig brains according to the described procedures; tissue Labortierkunde und Laborgenetik, Medizinische Universität Wien; host or cells: Sprague-Dawley rat brain without cerebella

KOR [11] = molecular target: T6, KOR (Cavia porcellus, UniProt P41144); test: competition radioligand binding, guinea-pig brain membranes, [3H]U69,593; settings: guinea-pig brain membranes; read-out: opioid receptor binding Ki KOR
T6 construct: Membranes were prepared from Sprague-Dawley rat brains or guinea-pig brains according to the described procedures; tissue Labortierkunde und Laborgenetik, Medizinische Universität Wien; host or cells: guinea-pig brain without cerebella

DOR [12] = molecular target: T3, DOR; test: [35S]GTPγS binding assay, CHO-hDOR membranes; format: biochemical; settings: for EC50: [35S]GTPγS, CHO human DOR membranes; for Emax: relative to reference full agonist DPDPE, read-out: DOR % stim.
[13] = [35S]GTPγS, CHO human MOR membranes, read-out: MOR EC50
[14] = [35S]GTPγS, CHO human KOR membranes, read-out: KOR EC50

Row | SMILES | Emax (MOR [1]) | Emax (KOR [2]) | ED50 (male CD1 mice [3]) | Ki (MOR [4]) | Ki (DOR [5]) | effect of naloxone methiodide on antinociceptive effect [6] | Ki (MOR [9]) | Ki (DOR [10]) | Ki (KOR [11]) | EC50 (MOR [1]; [13]) | EC50 (DOR [12]) | Emax (DOR [12]) | EC50 (KOR [2]; [14]) | further results
1 | CO[C@@]12CC[C@@H](NCC(=O)O)[C@@H]3Oc4c(O)ccc5c4[C@@]31CCN(C)[C@@H]2C5 [Compound 2b, 2-[(4,5α-Epoxy-3-Hydroxy-14β-Methoxy-17-Methylmorphinan-6β-yl)Amino]Acetic Acid] | 98 ± 9% | 82 ± 9% | 0.0275 mg/kg | 0.9 ± 0.14 nM | 10.1 ± 2.7 nM | reversed; also recorded: antagonized |  |  |  |  |  |  |  | EC50 (MOR [1]): 3.78 ± 0.73 nM; EC50 (KOR [2]): 361 ± 154 nM; more potent than morphine in inhibiting the writhing response (male CD1 mice [7]): 24 times; effect of intracerebroventricular CTAP on antinociceptive effects (MOR [8]): did not reverse; effect of naloxone methiodide on antinociceptive effects (mouse): completely antagonized; effect of sc naloxone methiodide on antihyperalgesic effects (rats): reversed
2 | CO[C@@]12CC[C@@H](N[C@@H](CCCCN)C(=O)O)[C@@H]3Oc4c(O)ccc5c4[C@@]31CCN(C)[C@@H]2C5 [Compound 8b, (2S)-6-Amino-2-[(4,5α-epoxy-3-hydroxy-14β-methoxy-17-methylmorphinan-6β-yl)amino]hexanoic Acid Trihydrochloride] | 90 ± 7% | 62 ± 7% |  |  |  | antagonized | 0.53 ± 0.09 nM | 3.34 ± 0.46 nM | 33.7 ± 4.1 nM | 6.85 ± 1.39 nM | 45.1 ± 22.7 nM | 93 ± 8% | 525 ± 24 nM | 
3 | CO[C@@]12CC[C@H](N[C@H](C(=O)O)C3CCCCC3)[C@@H]3Oc4c(O)ccc5c4[C@@]31CCN(C)[C@@H]2C5 [Compound 18a, (2S)-2-[(4,5α-Epoxy-3-hydroxy-14β-methoxy-17-methyl-morphinan-6α-yl)-amino]-2-cyclohexylacetic Acid Dihydrochloride] | 86 ± 8% | 52 ± 6% | 0.0206 mg/kg |  |  | reversed | 1.23 ± 0.2 nM | 14.3 ± 0.09 nM | 177 ± 30 nM | 2.88 ± 1.21 nM | 20.5 ± 8 nM | 101 ± 1% | 250 ± 80 nM | Ki ratio MOR/DOR/KOR (MOR [9]; from Ki in rat (MOR, DOR) and guinea-pig (KOR) brain membranes): 1/12/144; decreased DOR affinity vs 6β analogue (DOR [10]; rat brain, 18a vs 18b, 19a vs 19b): 11 times
4 | CO[C@@]12CC[C@@H](N[C@H](C(=O)O)C3CCCCC3)[C@@H]3Oc4c(O)ccc5c4[C@@]31CCN(C)[C@@H]2C5 [Compound 18b, (2S)-2-[(4,5α-Epoxy-3-hydroxy-14β-methoxy-17-methyl-morphinan-6β-yl)-amino]-2-cyclohexylacetic Acid Dihydrochloride] | 86 ± 9% | 59 ± 7% |  |  |  | antagonized | 1.66 ± 1.04 nM | 1.3 ± 0.16 nM | 118 ± 23 nM | 5.33 ± 0.89 nM | 3.57 ± 1.63 nM | 96 ± 10% | 282 ± 58 nM | 
5 | CC[C@H](N[C@@H]1CC[C@@]2(OC)[C@H]3Cc4ccc(O)c5c4[C@@]2(CCN3C)[C@H]1O5)C(=O)O [Compound 19b, (2S)-2-[(4,5α-Epoxy-3-hydroxy-14β-methoxy-17-methylmorphinan-6β-yl)amino]-2-ethylacetic Acid Dihydrochloride] | ~80% | 72 ± 0.5% |  | 2.1 ± 0.33 nM | 1.99 ± 0.84 nM | antagonized | 1.83 ± 0.04 nM | 1.3 ± 0.24 nM | 201 ± 10 nM | 5.47 ± 1.18 nM | 2.22 ± 1.64 nM | 100 ± 3% | 572 ± 18 nM | increased agonist potency at DOR vs MOR (DOR [12]; [35S]GTPγS EC50): 2–4 times
